Assay results taken from ChEMBL document CHEMBL3259686, “Biologically active dichapetalins from Dichapetalum gelonioides” (J Nat Prod, 2014).
The source made the active and inactive calls. No cut-off for these calls is given here.

Columns and labels:
Panagrellus redivivus = assay: Nematicidal activity against Panagrellus redivivus assessed as mortality at 100 ug/ml after 72 hrs by light binocular microscopic analysis (reference value: 7.1 +/- 0.9%); assay type: functional
Spodoptera exigua = assay: Antifeedant activity against beet armyworm after 24 hrs; assay type: functional, organism-based
[1] = test system: Fusarium oxysporum f. sp. niveum; assay: Antifungal activity against Fusarium oxysporum f. sp. niveum at 50 ug/disc after 2 days by disk diffusion method; assay type: functional; conditions: for zone of inhibition at 50 µg/disc: 48 h, read-out: DIZ
Rhizoctonia solani = assay: Antifungal activity against Rhizoctonia solani at 50 ug/disc after 2 days by disk diffusion method; assay type: functional; conditions: for zone of inhibition at 50 µg/disc: 48 h, read-out: DIZ
[2] = Antifungal activity against Cylindrocarpon musae at 50 ug/disc after 2 days by disk diffusion method; assay type: functional
[3] = test system: Colletotrichum gloeosporioides; assay: Antifungal activity against Colletotrichum gloeosporioides at 50 ug/disc after 2 days by disk diffusion method; assay type: functional; conditions: for zone of inhibition at 50 µg/disc: 48 h, read-out: DIZ
MCF7 = assay: Cytotoxicity against human MCF7 cells after 48 hrs by MTS assay; assay type: functional, cell-based; conditions: MCF7, 48 h
SMMC-7721 = assay: Cytotoxicity against human SMMC7721 cells after 48 hrs by MTS assay; assay type: functional, cell-based; conditions: SMMC-7721, 48 h
SW480 = assay: Cytotoxicity against human SW480 cells after 48 hrs by MTS assay; assay type: functional, cell-based; conditions: SW480, 48 h
HL-60 = assay: Cytotoxicity against human HL60 cells after 48 hrs by MTS assay; assay type: functional, cell-based; conditions: HL-60, 48 h
A549 = assay: Cytotoxicity against human A549 cells after 48 hrs by MTS assay; assay type: functional, cell-based; conditions: A549, 48 h
RAW264.7 [4] = assay: Inhibition of LPS-induced nitric oxide production in mouse RAW264.7 cells by Griess method; assay type: functional, cell-based
RAW264.7 [5] = assay: Ratio of MG132 IC50 to compound IC50 for LPS-induced nitric oxide production in mouse RAW264.7 cells; assay type: functional
RAW264.7 [6] = assay: Cytotoxicity against mouse RAW264.7 cells by MTT assay; assay type: cell-based
[7] = Cytotoxicity against human WM266.4 cells; assay type: functional, cell-based; conditions: WM 266-4
HCT-116 = assay: Cytotoxicity against human HCT116 cells; assay type: functional, cell-based

In the case of `C/C(=C\[C@H]1C[C@@H]([C@@H]2CC=C3[C@]4(C)[C@H](O)C[C@@H]5[C@](C)(CC=C6C[C@@H](c7ccccc7)OC[C@@]65C)[C@H]4CC[C@]32C)C(=O)O1)CO`, the mortality at 100 µg/mL (Panagrellus redivivus) is reported as 3% and the EC50 (Spodoptera exigua) is reported as 3.4 microg/cm2.

In the case of `CC(=O)O[C@@]1(C)CO[C@@]2(C[C@@H]([C@@H]3CC[C@]45C[C@]34C=C[C@@H]3[C@@]4(C)CC=C6C[C@@H](c7ccccc7)OC[C@]6(C)[C@@H]4CC(=O)[C@]35C)C(=O)O2)C1`, the zone of inhibition at 50 µg/disc [1] is reported as 11.5 mm, the “diameter of the inhibition zone (DIZ)” value (Rhizoctonia solani) is reported as “inactive” and the inhibition zone (IZ) [2] is reported as 13.8 mm. The zone of inhibition at 50 µg/disc [3] was 10.1 mm and the EC50 (Spodoptera exigua) was 11.7 microg/cm2.

In the case of NYSTATIN, the inhibition zone (IZ) [1] is reported as 12 mm, the inhibition zone (IZ) (Rhizoctonia solani) is reported as 14.7 mm and the inhibition zone (IZ) [2] is reported as 16.6 mm. It also gave an inhibition zone (IZ) [3] of 14.5 mm.

`C[C@]1(OC(=O)C[C@@H](O)c2ccc(O)cc2)CO[C@@]2(C[C@@H]([C@@H]3CC[C@]45C[C@]34C=C[C@@H]3[C@@]4(C)CC=C6C[C@@H](c7ccccc7)OC[C@]6(C)[C@@H]4CC(=O)[C@]35C)C(=O)O2)C1` gave an IC50 (MCF7) of 8.2 µM, an IC50 (SMMC-7721) greater than 40 µM and an IC50 (SW480) greater than 40 µM. It also gave a zone of inhibition at 50 µg/disc [1] of 12.8 mm, a zone of inhibition at 50 µg/disc (Rhizoctonia solani) of 13.8 mm and a mortality at 100 µg/mL (Panagrellus redivivus) of 20.5%. For the same compound, the inhibition zone (IZ) [2] was 12.8 mm, the zone of inhibition at 50 µg/disc [3] was 12.4 mm and the EC50 (Spodoptera exigua) was 78.7 microg/cm2. The IC50 (HL-60) was greater than 40 µM and the IC50 (A549) was 26.8 µM.

In the case of `COC(=O)[C@@H](Cc1cc(C)co1)[C@@H]1CC[C@]23C[C@]12C=C[C@@H]1[C@@]2(C)CC=C4C[C@@H](c5ccccc5)OC[C@]4(C)[C@@H]2CC(=O)[C@]13C`, the IC50 (MCF7) is reported as 21 µM, the IC50 (SMMC-7721) is reported as 24.8 µM and the IC50 (SW480) is reported as greater than 40 µM. The mortality at 100 µg/mL (Panagrellus redivivus) was 2.5%, the EC50 (Spodoptera exigua) was greater than 100 microg/cm2 and the IC50 (HL-60) was 10.2 µM. It also gave an IC50 (A549) of 17.6 µM.

In the case of `C/C(=C\[C@H]1C[C@@H]([C@@H]2CC[C@]34C[C@]23C=C[C@@H]2[C@@]3(C)CC=C5C[C@@H](c6ccccc6)OC[C@]5(C)[C@@H]3C[C@@H](O)[C@]24C)C(=O)O1)CO` [DICHAPETALIN A], the IC50 (RAW264.7 [4]) is reported as 0.02 µM, the “diameter of the inhibition zone (DIZ)” value [1] is reported as “inactive” and the zone of inhibition at 50 µg/disc (Rhizoctonia solani) is reported as 10.5 mm. The mortality at 100 µg/mL (Panagrellus redivivus) was 15.3%, the inhibition zone (IZ) [2] was 12.8 mm and the “diameter of the inhibition zone (DIZ)” value [3] was “inactive”. For the same compound, the “Ratio IC50” value (RAW264.7 [5]) was 20, the EC50 (Spodoptera exigua) was 3.1 microg/cm2 and the Activity (RAW264.7 [6]) was “Non-toxic”.

Work on `C[C@]1(OC(=O)C[C@@H](O)c2ccc(O)cc2)CO[C@@]2(C1)OC(=O)[C@H]([C@@H]1CC[C@]34C[C@]13C=C[C@@H]1[C@@]3(C)CC=C5C[C@@H](c6ccccc6)OC[C@]5(C)[C@@H]3CC(=O)[C@]14C)[C@H]2O` yielded an IC50 (MCF7) of 3.5 µM, an IC50 (SMMC-7721) of 18.7 µM and an IC50 (SW480) of 21 µM. The IC50 (HL-60) was 5.1 µM and the IC50 (A549) was 3 µM.

For `COc1ccc([C@@H]2CC3=CC[C@@]4(C)[C@@H](CC(=O)[C@]5(C)[C@@H]4C=C[C@]46C[C@@]45CC[C@H]6[C@@H]4C[C@]5(C[C@@](C)(OC(=O)C[C@@H](O)c6ccc(O)cc6)CO5)OC4=O)[C@@]3(C)CO2)cc1`, the mortality at 100 µg/mL (Panagrellus redivivus) was 4.8% and the EC50 (Spodoptera exigua) was greater than 100 microg/cm2.

`COC(=O)[C@@H](C[C@@]1(OC)C[C@](C)(O)CO1)[C@@H]1CC[C@]23C[C@]12C=C[C@@H]1[C@@]2(C)CC=C4C[C@@H](c5ccccc5)OC[C@]4(C)[C@@H]2CC(=O)[C@]13C` showed an EC50 (Spodoptera exigua) of 3.1 microg/cm2.

For `CC(=O)O[C@@]1(C)CO[C@@]2(C1)OC(=O)[C@H]([C@@H]1CC[C@]34C[C@]13C=C[C@@H]1[C@@]3(C)CC=C5C[C@@H](c6ccccc6)OC[C@]5(C)[C@@H]3[C@@H](O)C(=O)[C@]14C)[C@H]2O`, the EC50 [7] was 0.078 µM and the EC50 (HCT-116) was 0.0099 µM.

Work on `C[C@]1(O)CO[C@@]2(C1)OC(=O)[C@H]([C@@H]1CC[C@]34C[C@]13C=C[C@@H]1[C@@]3(C)CC=C5C[C@@H](c6ccccc6)OC[C@]5(C)[C@@H]3CC(=O)[C@]14C)[C@H]2O` yielded a mortality at 100 µg/mL (Panagrellus redivivus) of 46.3%.

Compound `COc1ccc([C@@H]2CC3=CC[C@@]4(C)[C@@H](CC(=O)[C@]5(C)[C@@H]4C=C[C@]46C[C@@]45CC[C@H]6[C@@H]4C[C@@]5(OC[C@](C)(OC(=O)CCc6ccc(O)cc6)[C@H]5O)OC4=O)[C@@]3(C)CO2)cc1` has an IC50 (MCF7) greater than 40 µM, an IC50 (SMMC-7721) greater than 40 µM and an IC50 (SW480) greater than 40 µM. For the same compound, the mortality at 100 µg/mL (Panagrellus redivivus) was 7.8%, the EC50 (Spodoptera exigua) was 28.9 microg/cm2 and the IC50 (HL-60) was greater than 40 µM. It also gave an IC50 (A549) greater than 40 µM.

`COc1ccc([C@@H]2CC3=CC[C@]4(C)[C@H]5C=C[C@]67C[C@]6(CC[C@H]7[C@@H]6C[C@H](/C=C(\C)CO)OC6=O)[C@]5(C)[C@H](O)C[C@H]4[C@@]3(C)CO2)cc1` [DICHAPETALIN K] showed a mortality at 100 µg/mL (Panagrellus redivivus) of 4.4%.

In the case of `C[C@]12CC=C3C[C@@H](c4ccccc4)OC[C@]3(C)[C@@H]1C[C@@H](O)[C@]1(C)[C@@H]2C=C[C@]23C[C@]12CC[C@H]3[C@@H]1C[C@@]2(OC[C@](C)(OC(=O)CCc3ccc(O)cc3)[C@H]2O)OC1=O`, the mortality at 100 µg/mL (Panagrellus redivivus) is reported as 61.8% and the EC50 (Spodoptera exigua) is reported as 9.8 microg/cm2.
